For experiment [1], the system named is 22Rv1. The experiment in a line: Cell line inhibition analysis (CCK-8, 72 h). The class given is cell-based. Particulars: Homo sapiens; 22Rv1, 72 hours; read-out: Cell growth inhibition GI50 22Rv1. As for the experimental part: (§1) C4-2B and 22Rv1 cells were purchased from ATCC and cultured according to the manufacturer's instructions. The cells were seeded in 96-well plates at 7×10^3cells/100 µl/well and allowed to attach for one day. After removing the culture medium, 90 µl/well of fresh culture medium was added, followed by addition of 10 µl/well of culture medium containing compounds at nine concentrations (0.076-500 µM) serially diluted 3-fold and DMSO control to achieve final concentrations of 0-50 µM, and then cultured for 72 hours in a 37 °C CO2 incubator. Cell proliferation after 72 hours was assessed by adding 10 µl/well of CCK-8 solution, orbital shaking for 30 seconds, then incubating at 37 °C CO2 incubator for 2 hours and measuring absorbance at 450 nm using a microplate reader. The measured absorbance values were corrected by subtracting the absorbance of wells containing only culture medium and CCK-8 solution, and GI50 values were calculated using GraphPad Prism 8 software.
(§2) Meanwhile, in a separate 96-well plate, cells were seeded at 7 × 10^3 cells/100 µl/well, allowed to attach for one day, CCK-8 solution was added, and absorbance was measured to establish the 'Growth (%) = 0' value.

Experiment [2] relates to C4-2B. The experiment in a line: Cell line inhibition analysis (CCK-8, 72 h). The note with it: read-out: Cell growth inhibition GI50 C4-2B. It counts as cell-based. As for the experimental part:
as §1, §2

For experiment [3], the target named is T1, Src (Homo sapiens, UniProt P12931).
T1 construct: purchased Reaction Biology (RBC)
T1 sequence (P12931 whole entry): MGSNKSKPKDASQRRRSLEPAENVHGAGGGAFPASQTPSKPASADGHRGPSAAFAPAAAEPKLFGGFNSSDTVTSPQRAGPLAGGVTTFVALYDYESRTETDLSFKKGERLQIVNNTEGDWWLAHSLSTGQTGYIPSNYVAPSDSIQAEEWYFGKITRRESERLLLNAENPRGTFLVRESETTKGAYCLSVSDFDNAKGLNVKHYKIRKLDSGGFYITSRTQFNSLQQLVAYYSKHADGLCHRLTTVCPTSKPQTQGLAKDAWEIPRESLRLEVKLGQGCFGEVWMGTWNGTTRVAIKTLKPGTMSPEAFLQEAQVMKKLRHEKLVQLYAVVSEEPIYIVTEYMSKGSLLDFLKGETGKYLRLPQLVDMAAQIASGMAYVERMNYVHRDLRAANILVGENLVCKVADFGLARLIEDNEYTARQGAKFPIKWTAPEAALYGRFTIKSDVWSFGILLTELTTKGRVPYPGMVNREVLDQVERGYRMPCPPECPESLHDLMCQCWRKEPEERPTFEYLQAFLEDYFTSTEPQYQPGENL
The experiment in a line: Enzyme activity inhibition (Reaction Biology). The class given is biochemical. As to the method: (§3) [* <10 nM: A, <100 nM: B, >100 nM: C]. [Table 7]

The target in experiment [4] is T2, ACK1 (Homo sapiens, UniProt Q07912).
T2 construct: purchased Reaction Biology (RBC)
T2 sequence (Q07912 whole entry): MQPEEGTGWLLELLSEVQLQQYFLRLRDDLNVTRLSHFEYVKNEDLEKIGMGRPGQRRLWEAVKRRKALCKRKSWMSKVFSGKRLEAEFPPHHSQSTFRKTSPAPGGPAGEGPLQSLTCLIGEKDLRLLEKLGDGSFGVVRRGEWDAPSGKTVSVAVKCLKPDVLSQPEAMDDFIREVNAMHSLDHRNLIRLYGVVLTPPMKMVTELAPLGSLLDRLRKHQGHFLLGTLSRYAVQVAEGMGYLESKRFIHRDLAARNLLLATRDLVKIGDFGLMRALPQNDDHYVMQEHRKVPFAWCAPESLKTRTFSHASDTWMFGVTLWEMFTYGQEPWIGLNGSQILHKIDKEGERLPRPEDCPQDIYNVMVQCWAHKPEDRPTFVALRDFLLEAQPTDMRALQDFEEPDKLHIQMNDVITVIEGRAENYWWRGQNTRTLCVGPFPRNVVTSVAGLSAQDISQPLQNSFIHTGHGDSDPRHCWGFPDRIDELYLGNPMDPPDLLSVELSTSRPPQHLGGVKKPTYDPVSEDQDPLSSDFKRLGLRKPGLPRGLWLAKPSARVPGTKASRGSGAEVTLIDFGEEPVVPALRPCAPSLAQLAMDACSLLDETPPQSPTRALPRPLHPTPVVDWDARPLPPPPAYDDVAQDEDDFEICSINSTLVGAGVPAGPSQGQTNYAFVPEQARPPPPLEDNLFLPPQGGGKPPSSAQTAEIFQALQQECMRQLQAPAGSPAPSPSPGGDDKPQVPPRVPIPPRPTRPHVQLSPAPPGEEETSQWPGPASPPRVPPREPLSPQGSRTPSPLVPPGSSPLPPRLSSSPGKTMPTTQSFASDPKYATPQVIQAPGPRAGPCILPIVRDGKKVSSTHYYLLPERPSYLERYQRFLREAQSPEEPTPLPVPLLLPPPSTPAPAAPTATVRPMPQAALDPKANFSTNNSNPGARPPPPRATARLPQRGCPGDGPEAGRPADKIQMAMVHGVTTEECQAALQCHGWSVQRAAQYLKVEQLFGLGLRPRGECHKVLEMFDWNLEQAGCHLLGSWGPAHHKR
The experiment in a line: Enzyme activity inhibition (Reaction Biology). The class given is biochemical. As for the experimental part:
as §3

The target in experiment [5] is T3, BMX (Homo sapiens, UniProt P51813).
T3 construct: purchased Reaction Biology (RBC)
T3 sequence (P51813 1-675): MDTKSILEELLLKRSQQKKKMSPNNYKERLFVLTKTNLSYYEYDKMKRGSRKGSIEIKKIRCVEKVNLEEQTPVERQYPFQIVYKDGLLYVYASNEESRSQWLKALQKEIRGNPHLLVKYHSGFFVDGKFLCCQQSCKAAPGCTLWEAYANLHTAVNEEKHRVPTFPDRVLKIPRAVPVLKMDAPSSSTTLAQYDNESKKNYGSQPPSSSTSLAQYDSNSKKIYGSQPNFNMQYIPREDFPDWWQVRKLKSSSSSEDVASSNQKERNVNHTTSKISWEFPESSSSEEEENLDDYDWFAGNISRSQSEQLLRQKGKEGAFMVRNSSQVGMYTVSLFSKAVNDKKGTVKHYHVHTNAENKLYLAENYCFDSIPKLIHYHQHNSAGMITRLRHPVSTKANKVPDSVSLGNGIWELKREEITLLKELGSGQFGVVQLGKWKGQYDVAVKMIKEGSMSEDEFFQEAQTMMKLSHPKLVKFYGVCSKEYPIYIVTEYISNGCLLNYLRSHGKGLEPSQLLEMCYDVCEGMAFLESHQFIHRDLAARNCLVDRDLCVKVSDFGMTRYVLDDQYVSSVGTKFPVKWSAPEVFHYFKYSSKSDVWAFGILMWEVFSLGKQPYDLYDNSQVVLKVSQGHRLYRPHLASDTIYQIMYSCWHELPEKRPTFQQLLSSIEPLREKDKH
In words: Enzyme activity inhibition (Reaction Biology). The class given is biochemical. As for the experimental part: as §3

Experiment [6] concerns SW620. The experiment in a line: Cell line inhibition analysis (CCK-8, 72 h). The class given is cell-based. The note with it: Homo sapiens, SW-620; read-out: Cell growth inhibition GI50 SW620. As for the experimental part:
as §1, §2
(§4) Furthermore, experiments were conducted on A172, A549, HCI-H460, AsPC-1, MIA-Paca-2, DLD-1, HCT-116, HT-29, SW480, SW620, MDA-MB-231, and SKOV3 cell lines using the same method, with results shown in Tables 9 and 10 below [* <1 µM: A, <5 µM: B, <10 µM: C, >10 µM: D].

Experiment [7] has as its system HCT-116. In words: Cell line inhibition analysis (CCK-8, 72 h). The class given is cell-based. Particulars: Homo sapiens, read-out: Cell growth inhibition GI50 HCT-116. As for the experimental part: as §1, §2, §4
Experiment [8] concerns AsPC-1. The experiment in a line: Cell line inhibition analysis (CCK-8, 72 h). It counts as cell-based. The note with it: Homo sapiens, ASPC1; read-out: Cell growth inhibition GI50 AsPC-1. As to the method:
as §1, §2, §4

Experiment [9] deals with SW480. In words: Cell line inhibition analysis (CCK-8, 72 h). The class given is cell-based. The note with it: Homo sapiens, read-out: Cell growth inhibition GI50 SW480. As to the method:
as §1, §2, §4

Each structure is given as a SMILES string. A value given as a limit tells only on which side of the number the result lay.

As for `Cc1ccc(NC(=O)c2ccc(Cl)c(C(F)(F)F)c2)cc1N1Cc2cnc(N)nc2C2(CC2)C1=O` [Compound 5, N-(3-(2'-amino-7'-oxo-5'H-spiro[cyclopropane-1,8'-pyrido[4,3-d]pyrimidine]-6'(7'H)-yl)-4-methylphenyl)-4-chloro-3-(trifluoromethyl)benzamide], the GI50 in experiment [1] and in [2] was 1 to 5 µM in each case.

For the compound `Cc1ccc(NC(=O)c2cc(N3CCOCC3)cc(C(F)(F)F)c2)cc1N1Cc2cnc(NC3CC3)nc2C2(CC2)C1=O` [Compound 28, N-(3-(2'-(cyclopropylamino)-7'-oxo-5'H-spiro[cyclopropane-1,8'-pyrido[4,3-d]pyrimidine]-6'(7'H)-yl)-4-methylphenyl)-3-morpholino-5-(trifluoromethyl)benzamide], the GI50 in experiment [2] was 1 to 5 µM; in experiment [6] it was 1 to 5 µM; in [7] it was less than 1 µM; in experiment [8], 5 to 10 µM; in experiment [9], 1 to 5 µM. Moreover, the values for the IC50 in [3], in experiment [4] and in [5] were more than 0.1 µM, 0.01 to 0.1 µM and less than 0.01 µM, respectively.

On to `COc1cc(C(=O)Nc2ccc(C)c(N3Cc4cnc(N)nc4C4(CC4)C3=O)c2)cc(C(F)(F)F)c1` [Compound 19, N-(3-(2'-amino-7'-oxo-5'H-spiro[cyclopropane-1,8'-pyrido[4,3-d]pyrimidine]-6'(7'H)-yl)-4-methylphenyl)-3-methoxy-5-(trifluoromethyl)benzamide], for which the GI50 in [1] and in [2] was 1 to 5 µM each time. The IC50 in experiment [3], in experiment [4] and in experiment [5] was less than 0.01 µM throughout.

`Cc1cc(Nc2ncc3c(n2)C2(CC2)C(=O)N(c2cc(NC(=O)c4cccc(C(F)(F)F)c4)ccc2C)C3)n(C)n1` [Compound 1, N-(3-(2'-((1,3-dimethyl-1H-pyrazol-5-yl)amino)-7'-oxo-5'H-spiro[cyclopropane-1,8'-pyrido[4,3-d]pyrimidin]-6'(7'H)-yl)-4-methylphenyl)-3-(trifluoromethyl)benzamide]: in experiment [2], the 50% growth inhibitory concentration (GI50) fell in the range of 1 to 5 µM. Moreover, the half-inhibitory concentration (IC50) in experiment [3], in experiment [4] and in experiment [5] was less than 0.01 µM throughout.

Regarding `Cc1ccc(NC(=O)c2cccc(C(F)(F)F)c2)cc1N1Cc2cnc(Nc3ccc(N4CCN(C)CC4)cc3)nc2C2(CC2)C1=O` [Compound 38, N-(4-methyl-3-(2'-((4-(4-methylpiperazin-1-yl)phenyl)amino)-7'-oxo-5'H-spiro[cyclopropane-1,8'-pyrido[4,3-d]pyrimidine]-6'(7'H)-yl)phenyl)-3-(trifluoromethyl)benzamide], the GI50 in experiment [6], in experiment [7], in experiment [8] and in [9] was less than 1 µM each time.

On to `Cc1ccc(NC(=O)c2cccc(C(F)(F)F)c2)cc1N1Cc2cnc(Nc3ccc(CN4CCN(C)CC4)cc3)nc2C2(CC2)C1=O` [Compound 43, N-(4-methyl-3-(2'-((4-((4-methylpiperazin-1-yl)methyl)phenyl)amino)-7'-oxo-5'H-spiro[cyclopropane-1,8'-pyrido[4,3-d]pyrimidine]-6'(7'H)-yl)phenyl)-3-(trifluoromethyl)benzamide], for which the GI50 in experiment [7] and in experiment [8] was less than 1 µM each time.

For the compound `Cc1ccc(NC(=O)c2cc(N3CCOCC3)cc(C(F)(F)F)c2)cc1N1Cc2cnc(N)nc2C2(CC2)C1=O` [Compound 29, N-(3-(2'-amino-7'-oxo-5'H-spiro[cyclopropane-1,8'-pyrido[4,3-d]pyrimidine]-6'(7'H)-yl)-4-methylphenyl)-3-morpholino-5-(trifluoromethyl)benzamide], the 50% growth inhibitory concentration (GI50) in experiment [2] is 1 to 5 µM. Further, the values for the 50% inhibitory concentration (IC50) in [3], in experiment [4] and in [5] were less than 0.01 µM, 0.01 to 0.1 µM and less than 0.01 µM, respectively.

Regarding `Cc1cn(-c2cc(C(=O)Nc3ccc(C)c(N4Cc5cnc(N)nc5C5(CC5)C4=O)c3)cc(C(F)(F)F)c2)cn1` [Compound 6, N-(3-(2'-amino-7'-oxo-5'H-spiro[cyclopropane-1,8'-pyrido[4,3-d]pyrimidine]-6'(7'H)-yl)-4-methylphenyl)-3-(4-methyl-1H-imidazol-1-yl)-5-(trifluoromethyl)benzamide], the GI50 in experiment [1] was less than 1 µM; in experiment [2], 1 to 5 µM. Also, the IC50 in experiment [3], in [4] and in experiment [5] was less than 0.01 µM in each case.

As to `Cc1ccc(NC(=O)c2ccc(F)c(C(F)(F)F)c2)cc1N1Cc2cnc(N)nc2C2(CC2)C1=O` [Compound 4, N-(3-(2'-amino-7'-oxo-5'H-spiro[cyclopropane-1,8'-pyrido[4,3-d]pyrimidine]-6'(7'H)-yl)-4-methylphenyl)-4-fluoro-3-(trifluoromethyl)benzamide], the GI50 in experiment [1] and in [2] was 1 to 5 µM in each case.

`Cc1ccc(NC(=O)c2cc(Cl)cc(C(F)(F)F)c2)cc1N1Cc2cnc(N)nc2C2(CC2)C1=O` [Compound 26, N-(3-(2'-amino-7'-oxo-5'H-spiro[cyclopropane-1,8'-pyrido[4,3-d]pyrimidine]-6'(7'H)-yl)-4-methylphenyl)-3-chloro-5-(trifluoromethyl)benzamide]: the GI50 in experiment [1] and in [2] was less than 1 µM each time. The IC50 in [3] is less than 0.01 µM; in [4], 0.01 to 0.1 µM; in experiment [5], less than 0.01 µM.

`COCCN(C)c1cc(C(=O)Nc2ccc(C)c(N3Cc4cnc(N)nc4C4(CC4)C3=O)c2)cc(C(F)(F)F)c1` [Compound 31, N-(3-(2'-amino-7'-oxo-5'H-spiro[cyclopropane-1,8'-pyrido[4,3-d]pyrimidine]-6'(7'H)-yl)-4-methylphenyl)-3-((2-methoxyethyl)(methyl)amino)-5-(trifluoromethyl)benzamide]: in experiment [2], the GI50 lay in the range of 1 to 5 µM. Further, the IC50 in experiment [3] is 0.01 to 0.1 µM; in [4] it was 0.01 to 0.1 µM; in [5], less than 0.01 µM.

Regarding `Cc1ccc(NC(=O)c2cc(C(F)(F)F)ccc2Cl)cc1N1Cc2cnc(N)nc2C2(CC2)C1=O` [Compound 25, N-(3-(2'-amino-7'-oxo-5'H-spiro[cyclopropane-1,8'-pyrido[4,3-d]pyrimidine]-6'(7'H)-yl)-4-methylphenyl)-2-chloro-5-(trifluoromethyl)benzamide], the GI50 in experiment [2] is more than 10 µM. Moreover, the results for the IC50 in experiment [3], in experiment [4] and in experiment [5] were more than 0.1 µM, 0.01 to 0.1 µM and more than 0.1 µM, respectively.

As for `COc1ccc(-c2cc(C(=O)Nc3ccc(C)c(N4Cc5cnc(N)nc5C5(CC5)C4=O)c3)cc(C(F)(F)F)c2)cc1` [Compound 20, N-(3-(2'-amino-7'-oxo-5'H-spiro[cyclopropane-1,8'-pyrido[4,3-d]pyrimidine]-6'(7'H)-yl)-4-methylphenyl)-4'-methoxy-5-(trifluoromethyl)-[1,1'-biphenyl]-3-carboxamide], in experiment [2], the GI50 is less than 1 µM. The IC50 in [3], in experiment [4] and in experiment [5] was 0.01 to 0.1 µM throughout.

(Values after patent EP4722212A1, “NOVEL COMPOUND FOR INHIBITING PROTEIN KINASES AND PHARMACEUTICAL COMPOSITION COMPRISING SAME” (Magicbullettherapeutics Co., Ltd., priority 2023, dated 2024).)
